Converted amounts (≈) assume the structure as drawn. The source made the active and inactive calls. The calls are words filed in the database; no cut-off is given here.
What was measured:
Staphylococcus aureus [1] = test: Antibiofilm activity against methicillin-resistant Staphylococcus aureus ATCC2858 assessed as biofilm eradication at 0.049 to 100 uM incubated for 24 hrs by crystal violet staining based assay; format: functional, organism-based; settings: dose 0.049-100 µM
Pseudomonas aeruginosa = test: Antibacterial activity against Pseudomonas aeruginosa incubated for 18 to 20 hrs by double dilution method; format: functional; settings: time 18-20 hrs
Staphylococcus aureus [2] = test: Antibacterial activity against methicillin-resistant Staphylococcus aureus clinical isolate ATCC05107 incubated for 18 to 20 hrs by double dilution method; format: functional; settings: time 18-20 hrs
Staphylococcus aureus [3] = test: Antibacterial activity against methicillin-resistant Staphylococcus aureus clinical isolate ATCC0101 incubated for 18 to 20 hrs by double dilution method; format: functional; settings: time 18-20 hrs
Staphylococcus aureus [4] = test: Antibacterial activity against Staphylococcus aureus ATCC6538 incubated for 18 to 20 hrs by double dilution method; format: functional; settings: time 18-20 hrs
Staphylococcus aureus [5] = test: Antibacterial activity against methicillin-resistant Staphylococcus aureus clinical isolate ATCC10105 incubated for 18 to 20 hrs by double dilution method; format: functional; settings: time 18-20 hrs
Candida albicans = test: Antibacterial activity against Candida albicans ATCC10231 incubated for 18 to 20 hrs by double dilution method; format: functional; settings: time 18-20 hrs
Escherichia coli = test: Antibacterial activity against Escherichia coli incubated for 18 to 20 hrs by double dilution method; format: functional; settings: time 18-20 hrs
HepG2 [6] = test: Cytotoxicity against human HepG2 cells assessed as cell survival rate at 50 uM incubated for 24 hrs by MTT assay relative to control; format: functional
Staphylococcus aureus [7] = test: Antibiofilm activity against methicillin-resistant Staphylococcus aureus ATCC2858 assessed as minimal biofilm eradication concentration incubated for 24 hrs by crystal violet staining based assay; format: functional
HepG2 [8] = test: Cytotoxicity against human HepG2 cells assessed as cell survival rate at 25 uM incubated for 24 hrs by MTT assay relative to control; format: functional
Staphylococcus aureus [9] = test: Antibacterial activity against methicillin-resistant Staphylococcus aureus ATCC2858 incubated for 18 to 20 hrs by double dilution method; format: functional; settings: time 18-20 hrs
Staphylococcus aureus [10] = test: Antibacterial activity against methicillin-resistant Staphylococcus aureus ATCC2858 assessed as reduction in bacterial growth at 0.5 to 4 times of MIC measured after 4 to 8 hrs by time kill assay; format: functional, organism-based; settings: time 4-8 hrs
Staphylococcus aureus [11] = test: Induction of drug resistance in methicillin-resistant Staphylococcus aureus ATCC2858 assessed as fold increase in MIC measured over 20 passage by broth dilution assay; format: functional; settings: time 20.0 day
Staphylococcus aureus [12] = test: Antibacterial activity against methicillin-resistant Staphylococcus aureus ATCC2858 infected in C57BL/6J mouse assessed as log reduction in bacterial titres in blood at 2 mg/kg, ip measured after 24 hrs; format: functional
[13] = Hepatotoxicity in C57BL/6J mouse assessed as steatosis in hepatic hilum at 200 mg/kg, po measured after 24 hrs by hematoxylin and eosin staining based immunohistochemical analysis; format: toxicity, organism-based; settings: in vivo
[14] = Hepatotoxicity in C57BL/6J mouse assessed as central necrosis at 200 mg/kg, po measured after 24 hrs by hematoxylin and eosin staining based immunohistochemical analysis; format: toxicity, organism-based; settings: in vivo
Staphylococcus aureus [15] = test: Antibiofilm activity against methicillin-resistant Staphylococcus aureus ATCC2858 assessed as biofilm eradication incubated for 24 hrs by crystal violet staining based assay; format: functional, organism-based; settings: dose 0.049-100 µM, DDE = dose-dependent effect
Cell membrane = test: Induction of cell membrane damage in methicillin-resistant Staphylococcus aureus ATCC2858 at 2 times of MIC measured after 4 to 12 hrs by DAPI and propidium iodide staining based confocal laser scanning microscopy analysis; settings: time 4-12 hrs
Staphylococcus aureus [16] = test: Antibacterial activity against methicillin-resistant Staphylococcus aureus ATCC2858 infected in C57BL/6J mouse assessed as log reduction in bacterial titres in blood at 5 mg/kg, ip measured after 24 hrs; format: functional
[17] = Toxicity in overnight fasted ICR mouse assessed as change in body weight at 200 mg/kg, IG measured for 7 days; format: organism-based; settings: in vivo, po, 168 h, time 7 day
[18] = Toxicity in overnight fasted ICR mouse assessed as change in appearance at 200 mg/kg, IG measured for 7 days; format: organism-based; settings: in vivo, po, 168 h, time 7 day
[19] = Toxicity in overnight fasted ICR mouse assessed as change in activity at 200 mg/kg, IG measured for 7 days; format: organism-based; settings: in vivo, po, 168 h, time 7 day
Staphylococcus aureus [20] = test: Induction of drug resistance in methicillin-resistant Staphylococcus aureus ATCC2858 assessed as fold increase in MIC measured after 19 passage by broth dilution assay; format: functional; settings: time 19.0 day

| Structure (SMILES) | MIC (Pseudomonas aeruginosa) [µM] | MIC (Staphylococcus aureus [4]) [µM] | MIC (Candida albicans) [µM] | MIC (Escherichia coli) [µM] | MIC (Staphylococcus aureus [9]) [µM] | also measured |
| --- | --- | --- | --- | --- | --- | --- |
| O=C(Nc1ccc(C(F)(F)F)cc1)Nc1ccc(Sc2nc3ccccc3s2)c(Cl)c1 | > 200 | 0.39 (≈ 0.187 µg/mL) | > 200 | > 200 | 0.78 (≈ 0.374 µg/mL) | Activity (Staphylococcus aureus [1]): Active; MIC (Staphylococcus aureus [2]): 1.56 µM (≈ 0.749 µg/mL); MIC (Staphylococcus aureus [3]): 0.78 µM (≈ 0.374 µg/mL); MIC (Staphylococcus aureus [5]): 1.56 µM (≈ 0.749 µg/mL); Activity (HepG2 [6]): 20%; MBEC (Staphylococcus aureus [7]): 5 µM; Activity (HepG2 [8]): >75% |
| O=C(Nc1ccc(Sc2nc3ccccc3s2)cc1)Nc1ccc(C(F)(F)F)cc1 | > 200 | 0.39 (≈ 0.174 µg/mL) | > 200 | > 200 | 0.39 (≈ 0.174 µg/mL) | Activity (Staphylococcus aureus [1]): Active; MIC (Staphylococcus aureus [2]): 0.78 µM (≈ 0.347 µg/mL); MIC (Staphylococcus aureus [3]): 0.78 µM (≈ 0.347 µg/mL); Activity (Staphylococcus aureus [10]): Active; MIC (Staphylococcus aureus [5]): 0.39 µM (≈ 0.174 µg/mL); MBEC (Staphylococcus aureus [7]): 5 µM; Activity (HepG2 [8]): >75% |
| O=C(Nc1ccc(Sc2nc3ccccc3s2)cc1)N1CCOCC1 | > 200 | 200 (≈ 74.3 µg/mL) | > 200 | > 200 | 200 (≈ 74.3 µg/mL) | – |
| O=C(Nc1ccc(Sc2nc3ccccc3s2)c(Cl)c1)Nc1ccc(Cl)cc1Cl | > 200 | 0.78 (≈ 0.375 µg/mL) | > 200 | > 200 | 0.78 (≈ 0.375 µg/mL) | – |
| CN1CCN(C(=O)Nc2ccc(Sc3nc4ccccc4s3)c(Cl)c2)CC1 | 200 (≈ 83.8 µg/mL) | 100 (≈ 41.9 µg/mL) | 200 (≈ 83.8 µg/mL) | 200 (≈ 83.8 µg/mL) | 100 (≈ 41.9 µg/mL) | – |
| O=C(Nc1ccc(Sc2nc3ccccc3s2)c(Cl)c1)Nc1ccccc1C(F)(F)F | > 200 | 3.12 (≈ 1.5 µg/mL) | > 200 | > 200 | 3.12 (≈ 1.5 µg/mL) | – |
| CN[C@H](CC(C)C)C(=O)N[C@H]1C(=O)N[C@@H](CC(N)=O)C(=O)N[C@H]2C(=O)N[C@H]3C(=O)N[C@H](C(=O)N[C@H](C(=O)O)c4cc(O)cc(O)c4-c4cc3ccc4O)[C@H](O)c3ccc(c(Cl)c3)Oc3cc2cc(c3O[C@@H]2O[C@H](CO)[C@@H](O)[C@H](O)[C@H]2O[C@H]2C[C@](C)(N)[C@H](O)[C@H](C)O2)Oc2ccc(cc2Cl)[C@H]1O [VANCOMYCIN] | – | – | – | – | 0.78 (≈ 1.13 µg/mL) | MIC (Staphylococcus aureus [2]): 1.56 µM (≈ 2.26 µg/mL); MIC (Staphylococcus aureus [3]): 0.78 µM (≈ 1.13 µg/mL); MIC (Staphylococcus aureus [5]): 1.56 µM (≈ 2.26 µg/mL); MBEC (Staphylococcus aureus [7]): 7 µM |
| O=C(Nc1ccc(C(F)(F)F)cc1)Nc1ccc(Sc2nc3cc(Cl)ccc3s2)c(Cl)c1 | > 200 | 0.39 (≈ 0.201 µg/mL) | > 200 | > 200 | 0.78 (≈ 0.401 µg/mL) | – |
| O=C(Nc1ccc(Sc2nc3ccccc3s2)c(Cl)c1)N1CCOCC1 | > 200 | > 200 | > 200 | > 200 | > 200 | – |
| O=C(NCc1ccccc1Cl)Nc1ccc(Sc2nc3ccccc3s2)c(Cl)c1 | > 200 | > 200 | > 200 | > 200 | > 200 | – |
| O=C(Nc1ccccc1C(F)(F)F)N1CCC(Sc2nc3ccccc3s2)CC1 | > 200 | 3.12 (≈ 1.37 µg/mL) | > 200 | > 200 | 3.12 (≈ 1.37 µg/mL) | – |
| O=C(Nc1ccc(Br)cc1)Nc1ccc(Sc2nc3ccccc3s2)c(Cl)c1 | > 200 | 0.78 (≈ 0.383 µg/mL) | > 200 | > 200 | 0.78 (≈ 0.383 µg/mL) | – |
| O=C(Nc1ccc(Sc2nc3ccccc3s2)c(Cl)c1)N1CCSC1 | > 200 | > 200 | > 200 | > 200 | > 200 | – |
| O=C(Nc1ccc(F)c(F)c1)Nc1ccc(Sc2nc3cc(Cl)ccc3s2)c(Cl)c1 | > 200 | 0.39 (≈ 0.188 µg/mL) | > 200 | > 200 | 0.78 (≈ 0.376 µg/mL) | fold change (FC) (Staphylococcus aureus [11]): 64; log(activity) (Staphylococcus aureus [12]): 1.9; Activity [13]: Non-Toxic; MIC (Staphylococcus aureus [2]): 1.56 µM (≈ 0.752 µg/mL); MIC (Staphylococcus aureus [3]): 1.56 µM (≈ 0.752 µg/mL); Activity (Staphylococcus aureus [10]): Active; MIC (Staphylococcus aureus [5]): 0.78 µM (≈ 0.376 µg/mL); Activity [14]: Non-Toxic; Activity (HepG2 [6]): 50%; MBEC (Staphylococcus aureus [7]): 4 µM; Activity (Staphylococcus aureus [15]): Dde; Activity (Cell membrane): Active; Activity (HepG2 [8]): >75%; log(activity) (Staphylococcus aureus [16]): 2.4; Activity [17]: Non-Toxic; Activity [18]: Non-Toxic; Activity [19]: Non-Toxic; fold change (FC) (Staphylococcus aureus [20]): 256 |
| CC(=O)NC[C@H]1CN(c2ccc(N3CCOCC3)c(F)c2)C(=O)O1 [LINEZOLID] | > 50 | 3.12 (≈ 1.05 µg/mL) | – | > 50 | 6.25 (≈ 2.11 µg/mL) | – |
| O=C(Nc1ccc(Sc2nc3ccccc3s2)cc1)Nc1ccc(F)c(F)c1 | > 200 | 0.39 (≈ 0.161 µg/mL) | > 200 | > 200 | 0.78 (≈ 0.323 µg/mL) | MIC (Staphylococcus aureus [2]): 3.12 µM (≈ 1.29 µg/mL); MIC (Staphylococcus aureus [3]): 1.56 µM (≈ 0.645 µg/mL); MIC (Staphylococcus aureus [5]): 1.56 µM (≈ 0.645 µg/mL) |
| CC1COc2c(N3CCN(C)CC3)c(F)cc3c(=O)c(C(=O)O)cn1c23 (stereo not drawn) [OFLOXACIN] | 1.56 (≈ 0.564 µg/mL) | 0.78 (≈ 0.282 µg/mL) | – | 0.39 (≈ 0.141 µg/mL) | 1.56 (≈ 0.564 µg/mL) | MBEC (Staphylococcus aureus [7]): 3 µM |
| O=C(Nc1ccc(F)cc1)Nc1ccc(Sc2nc3ccccc3s2)c(Cl)c1 | > 200 | 0.78 (≈ 0.335 µg/mL) | > 200 | > 200 | 1.56 (≈ 0.671 µg/mL) | – |
| O=C(Nc1ccc(Sc2nc3ccccc3s2)c(Cl)c1)N1CCCC1 | > 200 | > 200 | > 200 | > 200 | > 200 | – |
| CO[C@@]1(NC(=O)Cc2cccs2)C(=O)N2C(C(=O)O)=C(COC(N)=O)CS[C@@H]21 [CEFOXITIN] | > 200 | 25 (≈ 10.7 µg/mL) | – | 50 (≈ 21.4 µg/mL) | 100 (≈ 42.7 µg/mL) | – |

From ChEMBL document CHEMBL5154851, “Novel benzothiazole‒urea hybrids: Design, synthesis and biological activity as potent anti-bacterial agents against MRSA” (Eur J Med Chem, 2022)
